Measurements: patent EP1019392B1, “TRICYCLIC AMIDES USEFUL FOR INHIBITION OF G-PROTEIN FUNCTION AND FOR TREATMENT OF PROLIFERATIVE DISEASES” (SCHERING CORPORATION, priority 1995, dated 1997)
pIC50: −log10 of the molar value. Read-outs that look alike come from different tables or passages of the source.

Columns and labels:
[1] = system: Ras-CVLS processing in COS monkey kidney cells; assay: COS cell assay: inhibition of Ras-CVLS processing (Western blot); assay type: cell-based
Source text: • 1. In vitro enzyme assays: Inhibition of farnesyl protein transferase and geranylgeranyl protein transferase. Both farnesyl protein transferase (FPT) and geranylgeranyl protein transferase (GGPT) I were partially purified from rat brain by ammonium sulfate fractionation followed by Q-Sepharose (Pharmacia, Inc.) anion exchange chromatography essentially as described by Yokoyama et al (Yokoyama, K., et al., (1991), A protein geranylgeranyltransferase from bovine brain: Implications for protein prenylation specificity, Proc. Natl. Acad. Sci USA 88: 5302-5306, the disclosure of which is incorporated herein by reference thereto). Human farnesyl protein transferase was also expressed in E. coli, using cDNA clones encoding both the a and b subunits. The methods used were similar to those published (Omer, C. et al., (1993), Characterization of recombinant human farnesyl protein transferase: Cloning, expression, farnesyl diphosphate binding, and functional homology with yeast prenyl-protein transferases, Biochemistry 32:5167-5176). Human farnesyl protein transferase was partially-purified from the soluble protein fraction of E. coli as described above. […] Two forms of val^12-Ha-Ras protein were prepared as substrates for these enzymes, differing in their carboxy terminal sequence. One form terminated in cysteine-valine-leucine-serine (Ras-CVLS) the other in cystein-valine-leucine-leucine (Ras-CVLL). Ras-CVLS is a substrate for the farnesyl protein transferase while Ras-CVLL is a substrate for geranylgeranyl protein transferase I. The cDNAs encoding these proteins were constructed so that the proteins contain an amino-terminal extension of 6 histidine residues. Both proteins were expressed in Escherichia coli and purified using metal chelate affinity chromatography. The radiolabelled isoprenyl pyrophosphate substrates, [^3H]farnesyl pyrophosphate and [^3H]geranylgeranyl pyrophosphate, were purchased from DuPont/New England Nuclear. Several methods for measuring farnesyl protein transferase activity have been described (Reiss et al 1990, Cell 62: 81; Schaber et al 1990, J. Biol. Chem. 265: 14701; Manne et al 1990, PNAS 87: 7541; and Barbacid & Manne 1993, U.S. Patent No. 5,185,248). […] The reaction was allowed to proceed for 30 minutes at room temperature and then stopped with 0.5 ml of 4% sodium dodecyl sulfate (SDS) followed by 0.5 ml of cold 30% TCA. Samples were allowed to sit on ice for 45 minutes and precipitated Ras protein was then collected on GF/C filter paper mats using a Brandel cell harvester. Filter mats were washed once with 6% TCA, 2% SDS and radioactivity was measured in a Wallac 1204 Betaplate BS liquid scintillation counter. Percent inhibition was calculated relative to the DMSO vehicle control. The geranylgeranyl protein transferase I assay was essentially identical to the farnesyl protein transferase assay described above, with two exceptions: [^3H]geranylgeranylpyrophosphate replaced farnesyl pyrophosphate as the isoprenoid donor and Ras-CVLL was the protein acceptor. […] Cell-Based Assay: Transient expression of val^12-Ha-Ras-CVLS and val^12-Ha-Ras-CVLL in COS monkey kidney cells: Effect of farnesyl protein transferase inhibitors on Ras processing and on disordered cell growth induced by transforming Ras. COS monkey kidney cells were transfected by electroporation with the plasmid pSV-SPORT (Gibco/BRL) containing a cDNA insert encoding either Ras-CVLS or Ras-CVLL, leading to transient overexpression of a Ras substrate for either farnesyl protein transferase or geranylgeranyl protein transferase I, respectively (see above). Following electroporation, cells were plated into 6-well tissue culture dishes containing 1.5 ml of Dulbecco's-modified Eagle's media (GIBCO, Inc.) supplemented with 10% fetal calf serum and the appropriate farnesyl protein transferase inhibitors. After 24 hours, media was removed and fresh media containing the appropriate drugs was re-added.

[2] = system: SW620-BAG human colon carcinoma cells expressing an activated K-ras gene; assay: Cell Mat Assay, SW620 tumor cells; assay type: cell-based
[3] = system: Normal human HEPM fibroblasts; assay: Cell Mat Assay, normal cell mat; assay type: cell-based; settings: normal monolayer
[4] = system: DLD-1-BAG human colon carcinoma cells expressing as activated K-ras gene; assay: Cell Mat Assay, DLD-1 tumor cells; assay type: cell-based
[5] = target: T1, farnesyl protein transferase (FPT) (Rattus norvegicus, UniProt Q02293+Q04631); assay: In vitro enzyme assay: inhibition of farnesyl protein transferase (transfer of [3H]farnesyl to Ras-CVLS); assay type: biochemical; settings: partially purified rat brain FPT, Ras-CVLS
T1 construct: were partially purified from rat brain by ammonium sulfate fractionation followed by Q-Sepharose; from tissue; host or cells: rat brain
Experimental: • 1. In vitro enzyme assays: Inhibition of farnesyl protein transferase and geranylgeranyl protein transferase. […] Human farnesyl protein transferase was also expressed in E. coli, using cDNA clones encoding both the a and b subunits. […] Human farnesyl protein transferase was partially-purified from the soluble protein fraction of E. coli as described above. […] Two forms of val^12-Ha-Ras protein were prepared as substrates for these enzymes, differing in their carboxy terminal sequence. One form terminated in cysteine-valine-leucine-serine (Ras-CVLS) the other in cystein-valine-leucine-leucine (Ras-CVLL). Ras-CVLS is a substrate for the farnesyl protein transferase while Ras-CVLL is a substrate for geranylgeranyl protein transferase I. The cDNAs encoding these proteins were constructed so that the proteins contain an amino-terminal extension of 6 histidine residues. Both proteins were expressed in Escherichia coli and purified using metal chelate affinity chromatography. The radiolabelled isoprenyl pyrophosphate substrates, [^3H]farnesyl pyrophosphate and [^3H]geranylgeranyl pyrophosphate, were purchased from DuPont/New England Nuclear. […] The reaction was allowed to proceed for 30 minutes at room temperature and then stopped with 0.5 ml of 4% sodium dodecyl sulfate (SDS) followed by 0.5 ml of cold 30% TCA. Samples were allowed to sit on ice for 45 minutes and precipitated Ras protein was then collected on GF/C filter paper mats using a Brandel cell harvester. […] Percent inhibition was calculated relative to the DMSO vehicle control. The geranylgeranyl protein transferase I assay was essentially identical to the farnesyl protein transferase assay described above, with two exceptions: [^3H]geranylgeranylpyrophosphate replaced farnesyl pyrophosphate as the isoprenoid donor and Ras-CVLL was the protein acceptor. […] Cell-Based Assay: Transient expression of val^12-Ha-Ras-CVLS and val^12-Ha-Ras-CVLL in COS monkey kidney cells: Effect of farnesyl protein transferase inhibitors on Ras processing and on disordered cell growth induced by transforming Ras. COS monkey kidney cells were transfected by electroporation with the plasmid pSV-SPORT (Gibco/BRL) containing a cDNA insert encoding either Ras-CVLS or Ras-CVLL, leading to transient overexpression of a Ras substrate for either farnesyl protein transferase or geranylgeranyl protein transferase I, respectively (see above). Following electroporation, cells were plated into 6-well tissue culture dishes containing 1.5 ml of Dulbecco's-modified Eagle's media (GIBCO, Inc.) supplemented with 10% fetal calf serum and the appropriate farnesyl protein transferase inhibitors. After 24 hours, media was removed and fresh media containing the appropriate drugs was re-added. 48 hours after electroporation cells were examined under the microscope to monitor disordered cell growth induced by transforming Ras. Cells expressing transforming Ras become more rounded and refractile and overgrow the monolayer, reminiscent of the transformed phenotype. Cells were then photographed, washed twice with 1 ml of cold phosphate-buffered saline (PBS) and removed from the dish by scraping with a rubber policeman into 1 ml of a buffer containing 25 mM Tris, pH 8.0; 1 mM ethylenediamine tetraacetic acid; 1 mM phenylmethylsulfonyl fluoride; […] leupeptin; and 0.1 mM pepstatin. Cells were lysed by homogenization and cell debris was removed by centrifugation at 2000 x g for 10 min. Cellular protein was precipitated by addition of ice-cold trichloroacetic acid and redissolved in […] of SDS-electrophoresis sample buffer. […] Proteins resolved on the gels were electroblotted onto nitrocellulose membranes for immunodetection. […] After washing, membranes were incubated for one hour at room temperature with a 1:5000 dilution of secondary antibody, rabbit anti-rat IgG conjugated to horseradish peroxidase, in PBS containing 1% fetal calf serum.

[6] = system: T24-BAG4 human bladder carcinoma cells expressing an activated H-ras gene; assay: Cell Mat Assay, T24 tumor cells; assay type: cell-based; settings: read-out: Tumor (T-24) IC50
[7] = system: DLD-1 (human colon carcinoma cells, ATCC # CCL 221); assay: In Vivo Anti-Tumor Studies, subcutaneous DLD-1 tumors; parameters: species or system athymic nu/nu female mice; settings: Mus musculus, DLD-1, po, QID, 4 weeks, range over the listed compounds
Source text: Tumor cells (5 X 10^5 to 8 X 10^6) of DLD-1 (human colon carcinoma cells, ATCC # CCL 221) are innolculated subcutaneously into the flank of 5-6 week o;d athymic nu/nu female mice.

[8] = Homo sapiens, SW-620, Mat assay

Structure (SMILES) | pIC50 ([1]; Primates, COS) | pIC50 [2, 8] | pIC50 ([3]; Homo sapiens, Fibroblast) | pIC50 ([4]; Homo sapiens, DLD-1, Mat assay) | pIC50 ([5]; Table 1, read-out: FPT IC50) | pIC50 ([6]; Homo sapiens) | pIC50 [1] | pIC50 ([5]; FPT IC50, Table 1) | pIC50 ([2]; Mat assay) | pIC50 [3] | pIC50 ([4]; Mat assay) | inhibition in vivo at 10 mg/kg ([7]; 10 mg/kg p.o.) [%] | inhibition in vivo at 50 mg/kg ([7]; 50 mg/kg p.o.) [%] | pIC50 [6]
NC(=O)N1CCC(CC(=O)N2CCC(=C3c4ccc(Cl)c(Br)c4CCc4cc(Br)cnc43)CC2)CC1 (racemic) [Example 15] | 6.22 | < 5.20 | < 4.60 | 5.20 | 7.66 | 5.51 | – | – | – | – | – | – | – | –
NC(=O)N1CCC(CC(=O)N2CCC(=C3c4ncc(Br)cc4CCc4cc(Cl)cc(Br)c43)CC2)CC1 (single isomer, unassigned) [Example 8A] | – | 5.51 | < 4.60 | > 5.80 | – | > 5.80 | < 6.00 | – | – | – | – | – | – | –
NC(=O)N1CCC(CC(=O)N2CCN(C3c4ncc(Br)cc4CCc4cc(Cl)cc(Br)c43)CC2)CC1 (single isomer, unassigned) [Example 12A] | – | 5.40 | < 4.60 | 5.70 | – | > 5.80 | 6.02 | < 7.03 | – | – | – | – | – | –
NC(=O)N1CCC(CC(=O)N2CCN(C3c4ncc(Br)cc4CCc4cc(Cl)cc(Br)c43)CC2)CC1 (single isomer, unassigned) [Example 12B] | – | – | – | – | – | – | > 7.60 | 8.60 | 5.20 | < 4.60 | 5.51 | 7 to 50 | 35.4 to 83 | > 5.80
O=C(Cc1cc[n+]([O-])cc1)N1CCC(C2c3ccc(Cl)c(Br)c3CCc3cc(Br)cnc32)CC1 (single isomer, unassigned) [Example 14] | – | – | – | – | 7.21 | – | < 6.00 | – | < 4.90 | < 4.60 | 5.20 | – | – | > 5.80
NC(=O)N1CCC(CC(=O)N2CCN([C@H]3c4ccc(Cl)cc4CCc4cc(Br)cnc43)CC2)CC1 [Example 17A] | 6.30 | 4.74 | < 4.60 | 5.40 | 7.32 | 5.51 | – | – | – | – | – | – | – | –
